From US20040254241A1, “Aryl sulfamate derivatives” (priority 2004, published 2004)

The compounds below were run against T1, recombinant human estrone sulfatase (Homo sapiens, UniProt P08842) (assay: Test for inhibition of estrone sulfatase (steroid sulfatase)). Conditions: 4-methylumbelliferyl sulfate 0.3 mmol/L, phosphate buffer pH 7.5, 37° C., 1 hour; enzyme expressed in CHO cells, partially purified; read-out: Inhibitory activity against steroid sulfatase IC50.
T1 construct: made in house; host or cells: Chinese Hamster Ovary (CHO) cells
T1 sequence (P08842 22-583): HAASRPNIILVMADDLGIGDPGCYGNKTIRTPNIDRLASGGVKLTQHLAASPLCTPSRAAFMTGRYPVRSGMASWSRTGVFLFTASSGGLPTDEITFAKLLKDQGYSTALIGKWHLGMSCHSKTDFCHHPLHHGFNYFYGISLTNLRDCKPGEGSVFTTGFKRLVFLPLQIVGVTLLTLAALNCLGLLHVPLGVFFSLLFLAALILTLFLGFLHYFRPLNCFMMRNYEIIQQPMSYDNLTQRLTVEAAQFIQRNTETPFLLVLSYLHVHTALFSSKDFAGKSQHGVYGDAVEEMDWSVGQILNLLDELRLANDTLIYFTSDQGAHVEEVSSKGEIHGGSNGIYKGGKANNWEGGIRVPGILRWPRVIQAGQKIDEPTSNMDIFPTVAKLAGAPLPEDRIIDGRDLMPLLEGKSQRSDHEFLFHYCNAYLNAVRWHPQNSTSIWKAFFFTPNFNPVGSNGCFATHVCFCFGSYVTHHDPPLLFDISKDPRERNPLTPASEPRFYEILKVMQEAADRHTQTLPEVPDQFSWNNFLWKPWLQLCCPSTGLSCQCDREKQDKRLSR
Assay type: biochemical
Method: Test Example 1: Test for Inhibition of Estrone Sulfatase (Steroid Sulfatase)
4-Methylumbelliferyl sulfate (final concentration 0.3 mmol/L), recombinant human estrone sulfatase (7.8 ng/well), and each solution of the test compound having each test concentrations (test compound was dissolved in 0.001 mL of DMSO) were added to a phosphate buffer (pH 7.5) (final volume 0.1 mL) containing 0.28 mol/L sucrose and 0.04 mol/L nicotinamide. An enzyme reaction was conducted at 37° C. for 1 hour. The human estrone sulfatase gene was introduced into Chinese Hamster Ovary (CHO) cells, and the recombinant human estrone sulfatase was expressed, then it was used after partial purification. After completing the enzyme reaction, 2 mol/L glycine-sodium hydroxide solution (pH 10.3) (0.13 mL) was added and stirred. Using a fluorescent plate reader (Cyto Fluor II), the fluorescent strength of the generated 4-methylumbelliferone was measured. The measurements were conducted in duplicate at the same time. The fluctuations within the assay were within 10%. An enzyme reaction without the presence of a test compound was conducted at the same time. The inhibitory activity against estrone sulfatase for each concentration of the test compounds was calculated using the following equation.
A: Amount of 4-methylumbelliferone when test compound is present
B: Amount of 4-methylumbelliferone when test compound is not present
Inhibitory activity against estrone sulfatase [formula]
The inhibitory activity against estrone sulfatase of the aryl sulfamate derivative can be expressed as the concentration (IC50) of aryl sulfamate derivative at which the estrone sulfatase activity in the presence of the aryl sulfamate derivative is half of that when no test compound is added.
CCCCCCCCCNC(=O)/C(C#N)=C(\C)c1ccc(OS(N)(=O)=O)c(Br)c1 [Compound 56] gave an IC50 of 41 nM.
CCCCCCCCCNC(=O)/C(C#N)=C(\C)c1ccc(OS(N)(=O)=O)c(Cl)c1 [Compound 55] was tested, and the IC50 was 38 nM.
In the case of CCCCCCCCCNC(=O)/C(C#N)=C(\C)c1ccc(OS(N)(=O)=O)cc1 [Compound 13], the IC50 is reported as 12 nM.
With CCCCCCCCCNC(=O)/C=C/c1ccc(OS(N)(=O)=O)cc1 [Compound 1] the IC50 was 73 nM.
Work on CCCCCCCCCNC(=O)/C(I)=C/c1ccc(OS(N)(=O)=O)cc1 [Compound 43] yielded an IC50 of 59 nM.
CCCCCCCCCNC(=O)/C(C)=C/c1ccc(OS(N)(=O)=O)cc1 [Compound 3] was tested, and the IC50 was 61 nM.
CCCCCCCCCNC(=O)/C(Br)=C/c1ccc(OS(N)(=O)=O)cc1 [Compound 42] was tested, and the IC50 was 54 nM.
